Measured values published in patent US12162878B2 (HINOVA PHARMACEUTICALS INC., priority 2018, dated 2024).

What follows are compounds tested on CWR22RV1 cells (assay: Inhibition of proliferation of CWR22RV1 cells (CCK-8)). Settings: Homo sapiens, 144 h, 6 days.
Format: cell-based, human
Method: • CWR22RV1 cell line (Cell Bank of Chinese Academy of Sciences, TCHu100) • FBS (Gibco, Cat. No. 10099-141) • 0.01M PBS (Biosharp, Cat. No. 162262) • RIPM1640 (Hyclone, Cat. No. 308090.01) • Penicillin-Streptomycin (Hyclone, Cat. No. SV30010) • Cell counting kit-8 (Signalway Antibody, Cat. No. CP002) • DMSO (Sigma, Cat. No. D5879) • Centrifuge Tube, 15 ml (Excell Bio, Cat. No. CS015-0001) • Cell Culture Dish, (Excell Bio, Cat. No. CS016-0128) • 96-well cell culture cluster (Corning, Cat. No. 3599) • 2. Experimental method (1) Preparation of Buffer
1) CWR22RV1 cells were subcultured in cell culture medium, and the cells in good growth condition were seeded in a 96-well plate, 80 μL for each well, thus the number of cells per well was 1500, then the plate was cultured overnight in a 37° C., 5% CO2 cell incubator.
2) The drug was prepared with dimethyl sulfoxide (DMSO) as a 30 mM stock solution. Prior to use, the solution was diluted 3 times with DMSO, and then diluted with a 3-fold gradient to obtain 9 concentration gradients. Then, each concentration of the compound was further diluted 200 times with the culture solution (to ensure that DMSO concentration in the culture system was 0.1%), 2 repeat wells for each concentration. The diluted solution of each compound (20 μL) was added to the cell culture well (with a final concentration of 10 μM, 3.3 μM, 1.1 μM . . . ), and shaken gently for mixing. In addition, three negative control wells containing only cells and three blank control wells containing only culture medium (20 μL DMSO diluted 200 times with culture medium being added to six wells) were included.
(1) After culturing for 6 days, 10 μL CCK-8 was added to each well and cultured for additional 2.5 h in a 37° C., 5% CO2 cell incubator.
(2) The absorbance (OD value) at 450 nm was measured with a multifunctional microplate reader.
(3) The data was analyzed by the Dose-response-inhibition equation in the software GraphPad Prism6, and the IC50 value was obtained.
`Cn1cc(-c2cc(S(C)(=O)=O)ccc2N2CCC3(CC2)CC3C#N)c2cc[nH]c2c1=O` (centres unmarked) [Compound 181, 6-(2-(6-methyl-7-oxo-6,7-dihydro-1H-pyrrolo[2,3-c]pyridin-4-yl)-4-(methylsulfonyl)phenyl)-6-aza-spiro[2.5]octan-1-cyanide] was tested, and the IC50 was 90 nM.

Same assay, conditions: Homo sapiens, CWR22Rv1, 144 h, 6 days
With `[2H]C([2H])([2H])n1cc(-c2cc(S(C)(=O)=O)ccc2N2CC3(COC3)C2)c2cc[nH]c2c1=O` [Compound 64, 6-trideuteromethyl-4-(5-(methylsulfonyl)-2-(2-oxa-6-aza-spiro[3.3]heptan-6-yl)phenyl)-1H-pyrrolo[2,3-c]pyridin-7(6H)-one] the IC50 was 380 nM. With `[2H]C([2H])([2H])n1cc(-c2cc(S(=O)(=O)CC)ccc2N2CC3(COC3)C2)c2cc[nH]c2c1=O` [Compound 65, 4-(5-(ethylsulfonyl)-2-(2-oxa-6-aza-spiro[3.3]heptan-6-yl)phenyl)-6-trideuteromethyl-1H-pyrrolo[2,3-c]pyridin-7(6H)-one] the IC50 was 410 nM. Compound `[2H]C([2H])([2H])n1cc(-c2cc(S(=O)(=O)CCCC)ccc2N2CC3(COC3)C2)c2cc[nH]c2c1=O` [Compound 66, 4-(5-(butylsulfonyl)-2-(2-oxa-6-aza-spiro[3.3]heptan-6-yl)phenyl)-6-trideuteromethyl-1H-pyrrolo[2,3-c]pyridin-7(6H)-one] has an IC50 of 520 nM. For `[2H]C([2H])([2H])n1cc(-c2cc(S(=O)(=O)C3CC3)ccc2N2CC3(COC3)C2)c2cc[nH]c2c1=O` [Compound 67, 4-(5-(cyclopropylsulfonyl)-2-(2-oxa-6-aza-spiro[3.3]heptan-6-yl)phenyl)-6-trideuteromethyl-1H-pyrrolo[2,3-c]pyridin-7(6H)-one], the IC50 was 490 nM. In the case of `[2H]C([2H])([2H])n1cc(-c2cc(S(C)(=O)=O)ccc2N2CCC3(CC2)CC3C(=O)OCC)c2cc[nH]c2c1=O` (centres unmarked) [Compound 68, ethyl 6-(2-(6-trideuteromethyl-7-oxo-6,7-dihydro-1H-pyrrolo [2,3-c]pyridin-4-yl)-4-(methylsulfonyl)phenyl)-6-aza-spiro[2.5]octan-1-carboxylate], the IC50 is reported as 530 nM. Compound `[2H]C([2H])([2H])n1cc(-c2cc(S(C)(=O)=O)ccc2N2CCC3(CC2)CC3C(=O)O)c2cc[nH]c2c1=O` (centres unmarked) [Compound 69, 6-(2-(6-trideuteromethyl-7-oxo-6,7-dihydro-1H-pyrrolo[2,3-c]pyridin-4-yl)-4-(methylsulfonyl)phenyl)-6-aza-spiro[2.5]octan-1-carboxylic acid] has an IC50 of 570 nM. Work on `CCCCS(=O)(=O)Nc1ccc(N2CCC3(CC2)CC3)c(-c2cn(C)c(=O)c3[nH]ccc23)c1` [Compound 70, N-(3-(6-methyl-7-oxo-6,7-dihydro-1H-pyrrolo[2,3-c]pyridin-4-yl)-4-(6-aza-spiro[2.5]octan-6-yl)phenyl)butyl-1-sulfonamide] yielded an IC50 of 130 nM. For `Cn1cc(-c2cc(NS(C)(=O)=O)ccc2N2CCCC3(CC3)C2)c2cc[nH]c2c1=O` [Compound 71, N-(3-(6-methyl-7-oxo-6,7-dihydro-1H-pyrrolo[2,3-c]pyridin-4-yl)-4-(5-aza-spiro[2.5]octan-5-yl)phenyl)methylsulfonamide], the IC50 was 94 nM. In the case of `Cn1cc(-c2cc(S(C)(=O)=O)ccc2N2CCC3(CC2)COC3)c2cc[nH]c2c1=O` [Compound 177, 6-methyl-4-(5-(methylsulfonyl)-2-(2-oxa-7-aza-spiro[3.5]nonan-7-yl)phenyl)-1H-pyrrolo[2,3-c]pyridin-7(6H)-one], the IC50 is reported as 17 nM. `Cn1cc(-c2cc(S(C)(=O)=O)ccc2N2CCC3(CC2)CC3CO)c2cc[nH]c2c1=O` (centres unmarked) [Compound 179, 4-(2-(1-(hydroxymethyl)-6-aza-spiro[2.5]octan-6-yl)-5-(methylsulfonyl)phenyl)-6-methyl-1H-pyrrolo[2,3-c]pyridin-7(6H)-one] showed an IC50 of 51 nM. `Cn1cc(-c2cc(S(C)(=O)=O)ccc2N2CCC3(CC2)CC3C(N)=O)c2cc[nH]c2c1=O` (centres unmarked) [Compound 180, 6-(2-(6-methyl-7-oxo-6,7-dihydro-1H-pyrrolo[2,3-c]pyridin-4-yl)-4-(methylsulfonyl)phenyl)-6-aza-spiro[2.5]octan-1-formamide] gave an IC50 of 460 nM. With `Cc1c[nH]c2c(=O)n(C)cc(-c3cc(S(C)(=O)=O)ccc3N3CCC4(CC3)CC4)c12` [Compound 182, 3,6-dimethyl-4-(5-(methylsulfonyl)-2-(6-aza-spiro[2.5]octan-6-yl)phenyl)-1H-pyrrolo[2,3-c]pyridin-7(6H)-one] the IC50 was 40 nM. `[2H]C([2H])([2H])n1cc(-c2cc(S(C)(=O)=O)ccc2N2CCC3(CC2)COC3)c2cc[nH]c2c1=O` [Compound 183, 6-trideuteromethyl-4-(5-(methylsulfonyl)-2-(2-oxa-7-aza-spiro [3.5]nonan-7-yl)phenyl)-1H-pyrrolo[2,3-c]pyridin-7(6H)-one] showed an IC50 of 63 nM. For `[2H]C([2H])([2H])n1cc(-c2cc(S(C)(=O)=O)ccc2N2CCC3(CC2)CC3C(N)=O)c2cc[nH]c2c1=O` (centres unmarked) [Compound 185, 6-(2-(6-trideuteromethyl-7-oxo-6,7-dihydro-1H-pyrrolo[2,3-c]pyridin-4-yl)-4-(methylsulfonyl)phenyl)-6-aza-spiro[2.5]octan-1-formamide], the IC50 was 1040 nM. `[2H]C([2H])([2H])n1cc(-c2cc(S(=O)(=O)CC)cnc2N2CCC3(CC2)CC3)c2cc[nH]c2c1=O` [Compound 186, 4-(5(ethylsulfonyl)-2-(6-aza-spiro[2.5]octan-6-yl)pyridin-3-yl)-6-trideuteromethyl-1H-pyrrolo[2,3-c]pyridin-7(6H)-one] gave an IC50 of 21 nM. `[2H]C([2H])([2H])n1cc(-c2cc(S(C)(=O)=O)cnc2N2CCC3(CC2)CC3)c2cc[nH]c2c1=O` [Compound 187, 6-trideuteromethyl-4-(5(methylsulfonyl)-2-(6-aza-spiro[2.5]octan-6-yl)pyridin-3-yl)-1H-pyrrolo[2,3-c]pyridin-7(6H)-one] showed an IC50 of 19 nM. Compound `[2H]C([2H])([2H])n1cc(-c2cc(S(=O)(=O)C(C)C)cnc2N2CCC3(CC2)CC3)c2cc[nH]c2c1=O` [Compound 188, 4-(5-(isopropylsulfonyl)-2-(6-aza-spiro[2.5]octan-6-yl)pyridin-3-yl)-6-trideuteromethyl-1H-pyrrolo[2,3-c]pyridin-7(6H)-one] has an IC50 of 38 nM. Work on `[2H]C([2H])([2H])n1cc(-c2cc(NS(C)(=O)=O)ccc2N2CCC3(CC2)COC3)c2cc[nH]c2c1=O` [Compound 189, N-(3-(6-trideuteromethyl-7-oxo-6,7-dihydro-1H-pyrrolo[2,3-c]pyridin-4-yl)-4-(2-oxa-7-aza-spiro[3.5]nonan-7-yl)phenyl)methanesulfonamide] yielded an IC50 of 120 nM. Compound `CCS(=O)(=O)Nc1ccc(N2CC3CC2CO3)c(-c2cn(C)c(=O)c3[nH]ccc23)c1` (centres unmarked) [Compound 190, N-(4-(2-oxa-5-azabicyclo[2.2.1]heptan-5-yl)-3-(methyl-7-oxo-6,7-dihydro-1H-pyrrolo[2,3-c]pyridin-4-yl)phenyl)ethanesulfonamide] has an IC50 of 180 nM. With `Cn1cc(-c2cc(NS(=O)(=O)C3COC3)ccc2N2CCC3(CC3)C2)c2cc[nH]c2c1=O` [Compound 191, N-(3-(6-methyl-7-O-6,7-dihydro-1H-pyrrolo[2,3-c]pyridin-4-yl)-4-(5-aza-spiro[2.4]heptan-2-yl)phenyl)oxetane-3-ylsulfonamide] the IC50 was 140 nM. Compound `Cn1cc(-c2cc(NS(C)(=O)=O)ccc2N2CC3CC2CO3)c2cc[nH]c2c1=O` (centres unmarked) [Compound 192, N-(4-(2-oxa-5-azabicyclo[2.2.1]heptan-5-yl)-3-(6-methyl-7-oxo-6,7-dihydro-1H-pyrrolo[2,3-c]pyridin-4-yl)phenyl)methanesulfonamide] has an IC50 of 310 nM. `CCS(=O)(=O)Nc1ccc(N2CCC3(CC2)COC3)c(-c2cn(C)c(=O)c3[nH]ccc23)c1` [Compound 194, N-(3-(6-methyl-7-oxo-6,7-dihydro-1H-pyrrolo[2,3-c]pyridin-4-yl)-4-(2-oxa-7-aza-spiro[3.5]nonan-7-yl)phenyl)ethanesulfonamide] gave an IC50 of 46 nM. With `Cn1cc(-c2cc(NS(C)(=O)=O)ccc2N2CCC3(CC2)COC3)c2cc[nH]c2c1=O` [Compound 195, N-(3-(6-methyl-7-oxo-6,7-dihydro-1H-pyrrolo[2,3-c]pyridin-4-yl)-4-(2-oxa-7-aza-spiro[3.5]nonan-7-yl)phenyl)methanesulfonamide] the IC50 was 160 nM. In the case of `[2H]C([2H])([2H])n1cc(-c2cc(NS(=O)(=O)CC)ccc2N2CCC3(CC2)COC3)c2cc[nH]c2c1=O` [Compound 196, N-(3-(6-trideuteromethyl-7-oxo-6,7-dihydro-1H-pyrrolo[2,3-c]pyridin-4-yl)-4-(2-oxa-7-aza-spiro[3.5]nonan-7-yl)phenyl)ethanesulfonamide], the IC50 is reported as 56 nM. For `[2H]C([2H])([2H])n1cc(-c2cc(S(=O)(=O)NCC)ccc2N2CCC3(CC2)CC3)c2cc[nH]c2c1=O` [Compound 197, N-ethyl-3-(6-trideuteromethyl-7-oxo-6,7-dihydro-1H-pyrrolo [2,3-c]pyridin-4-yl)-4-(6-aza-spiro[2.5]octan-6-yl)benzenesulfonamide], the IC50 was 5 nM.
